How the values were obtained:
L1210 = experiment: Antiproliferative activity against mouse L1210 cells; type: functional, cell-based
FM3A = experiment: Antiproliferative activity against mouse FM3A cells; type: functional, cell-based
[1] = Antiproliferative activity against human Molt4/C8 cells; type: functional, cell-based; details: MOLT-4
CCRF-CEM = experiment: Antiproliferative activity against human CEM cells; type: functional, cell-based
[2] = Inhibition of bovine tubulin polymerization after 20 mins; design: species or system Bos taurus
K562 [3] = experiment: Cell cycle arrest in human K562 cells by accumulation at G0/G1 phase at 3 uM after 24 hrs by flow cytometry; type: functional
K562 [4] = experiment: Cell cycle arrest in human K562 cells by accumulation at S phase at 3 uM after 24 hrs by flow cytometry; type: functional
K562 [5] = experiment: Cell cycle arrest in human K562 cells by accumulation at G2/M phase at 3 uM after 24 hrs by flow cytometry; type: functional
K562 [6] = experiment: Cell cycle arrest in human K562 cells by accumulation at sub G0-G1 phase at 3 uM after 24 hrs by flow cytometry; type: functional
K562 [7] = experiment: Induction of apoptosis in human K562 cells after 48 hrs by fluorescence microscopy; type: functional, cell-based; details: K562, 48 h
Bos taurus = species: Bos taurus; experiment: Displacement of [3H]colchicine from bovine tubulin at 5 uM
K562 [8] = experiment: Cell cycle arrest in human K562 cells by accumulation at G0/G1 phase at 200 nM after 24 hrs by flow cytometry; type: functional
K562 [9] = experiment: Cell cycle arrest in human K562 cells by accumulation at S phase at 200 nM after 24 hrs by flow cytometry; type: functional
K562 [10] = experiment: Cell cycle arrest in human K562 cells by accumulation at G2/M phase at 200 nM after 24 hrs by flow cytometry; type: functional
K562 [11] = experiment: Cell cycle arrest in human K562 cells by accumulation at A phase at 200 nM after 24 hrs by flow cytometry; type: functional
K562 [12] = experiment: Cell cycle arrest in human K562 cells by accumulation at G0/G1 phase at 30 nM after 24 hrs by flow cytometry; type: functional
K562 [13] = experiment: Cell cycle arrest in human K562 cells by accumulation at S phase at 30 nM after 24 hrs by flow cytometry; type: functional
K562 [14] = experiment: Cell cycle arrest in human K562 cells by accumulation at G2/M phase at 30 nM after 24 hrs by flow cytometry; type: functional
K562 [15] = experiment: Cell cycle arrest in human K562 cells by accumulation at A phase at 30 nM after 24 hrs by flow cytometry; type: functional
K562 [16] = experiment: Induction of apoptosis in human K562 cells at 60 nM after 48 hrs by fluorescence microscopy; type: functional

COc1cc(C(=O)c2c(N)c3c(OC)cccc3n2C)cc(OC)c1OC
IC50 (L1210): > 10 µM
IC50 (FM3A): > 10 µM
IC50 [1]: > 10 µM
IC50 (CCRF-CEM): > 10 µM

CCn1c(C(=O)c2cc(OC)c(OC)c(OC)c2)c(N)c2ccc(OC)cc21
IC50 (L1210): > 10 µM
IC50 (FM3A): > 10 µM
IC50 [1]: > 10 µM
IC50 (CCRF-CEM): > 10 µM

COc1cc(C(=O)c2c(N)c3cccc(C)c3n2C)cc(OC)c1OC
IC50 (L1210): 1.8 µM
IC50 (FM3A): 1.4 µM
IC50 [1]: 0.27 µM
IC50 (CCRF-CEM): 1.2 µM
IC50 [2]: 8.4 µM

COc1cc(C(=O)c2[nH]c3ccc(C)cc3c2N)cc(OC)c1OC
IC50 (L1210): > 10 µM
IC50 (FM3A): > 10 µM
IC50 [1]: > 10 µM
IC50 (CCRF-CEM): > 10 µM

CCn1c(C(=O)c2cc(OC)c(OC)c(OC)c2)c(N)c2cccc(OC)c21
IC50 (L1210): > 10 µM
IC50 (FM3A): > 10 µM
IC50 [1]: 9.1 µM
IC50 (CCRF-CEM): > 10 µM

COc1cc(C(=O)c2[nH]c3c(OC)cccc3c2N)cc(OC)c1OC
IC50 (L1210): > 10 µM
IC50 (FM3A): > 10 µM
IC50 [1]: 0.64 µM
IC50 (CCRF-CEM): 0.63 µM

COc1ccc2c(N)c(C(=O)c3cc(OC)c(OC)c(OC)c3)[nH]c2c1
IC50 (L1210): 0.97 µM
IC50 (FM3A): 1.6 µM
IC50 [1]: 0.63 µM
IC50 (CCRF-CEM): 0.32 µM
IC50 [2]: > 40 µM
Activity (K562 [3]): 15%
Activity (K562 [4]): 35%
Activity (K562 [5]): 50%
Activity (K562 [6]): 25%
AC50 (K562 [7]): 3 µM

COc1cc(C(=O)c2sc3c(OC)cccc3c2N)cc(OC)c1OC
IC50 (L1210): 0.033 µM
IC50 (FM3A): 0.027 µM
IC50 [1]: 0.0085 µM
IC50 (CCRF-CEM): 0.0089 µM
IC50 [2]: 2.1 µM
inhibition (Bos taurus): 39%

COc1ccc(/C=C\c2cc(OC)c(OC)c(OC)c2)cc1O [COMBRETASTATIN A4]
IC50 [1]: 0.0016 µM

COc1ccc2[nH]c(C(=O)c3cc(OC)c(OC)c(OC)c3)c(N)c2c1
IC50 (L1210): 9.7 µM
IC50 (FM3A): 9.9 µM
IC50 [1]: 6.9 µM
IC50 (CCRF-CEM): 8.6 µM

CCn1c(C(=O)c2cc(OC)c(OC)c(OC)c2)c(N)c2ccccc21
IC50 (L1210): > 10 µM
IC50 (FM3A): > 10 µM
IC50 [1]: > 10 µM
IC50 (CCRF-CEM): > 10 µM

COc1cc2c(N)c(C(=O)c3cc(OC)c(OC)c(OC)c3)n(C)c2cc1OC
IC50 (L1210): 5.4 µM
IC50 (FM3A): 5 µM
IC50 [1]: 5 µM
IC50 (CCRF-CEM): 5 µM
IC50 [2]: 18 µM

COc1ccc2c(c1)c(N)c(C(=O)c1cc(OC)c(OC)c(OC)c1)n2C
IC50 (L1210): 4.2 µM
IC50 (FM3A): 5.2 µM
IC50 [1]: 2.1 µM
IC50 (CCRF-CEM): 3.9 µM
IC50 [2]: 15 µM

COc1ccc2c(N)c(C(=O)c3cc(OC)c(OC)c(OC)c3)n(C)c2c1
IC50 (L1210): 0.069 µM
IC50 (FM3A): 0.097 µM
IC50 [1]: 0.057 µM
IC50 (CCRF-CEM): 0.071 µM
IC50 [2]: 4.6 µM
inhibition (Bos taurus): 38%
Activity (K562 [8]): 15%
Activity (K562 [9]): 33%
Activity (K562 [10]): 52%
Activity (K562 [11]): 23%
AC50 (K562 [7]): 0.15 µM

COc1cc2[nH]c(C(=O)c3cc(OC)c(OC)c(OC)c3)c(N)c2cc1OC
IC50 (L1210): > 10 µM
IC50 (FM3A): > 10 µM
IC50 [1]: 8.6 µM
IC50 (CCRF-CEM): 9.5 µM

COc1cc(C(=O)c2c(N)c3cccc(OC)c3n2C)cc(OC)c1OC
IC50 (L1210): 0.015 µM
IC50 (FM3A): 0.015 µM
IC50 [1]: 0.0038 µM
IC50 (CCRF-CEM): 0.0088 µM
IC50 [2]: 1.4 µM
inhibition (Bos taurus): 76%
Activity (K562 [12]): 27%
Activity (K562 [13]): 28%
Activity (K562 [14]): 45%
Activity (K562 [15]): 24%
AC50 (K562 [7]): 0.03 µM
Activity (K562 [16]): 100%

COc1cc(C(=O)c2[nH]c3ccccc3c2N)cc(OC)c1OC
IC50 (L1210): > 10 µM
IC50 (FM3A): > 10 µM
IC50 [1]: > 10 µM
IC50 (CCRF-CEM): > 10 µM

COc1cc(C(=O)c2[nH]c3cc(Cl)ccc3c2N)cc(OC)c1OC
IC50 (L1210): > 10 µM
IC50 (FM3A): > 10 µM
IC50 [1]: 9.2 µM
IC50 (CCRF-CEM): > 10 µM

COc1cc(C(=O)c2[nH]c3cc(C)ccc3c2N)cc(OC)c1OC
IC50 (L1210): 3.5 µM
IC50 (FM3A): > 10 µM
IC50 [1]: 1.4 µM
IC50 (CCRF-CEM): 2.6 µM

COc1cc(C(=O)c2c(N)c3ccccc3n2C)cc(OC)c1OC
IC50 (L1210): 8.1 µM
IC50 (FM3A): > 10 µM
IC50 [1]: 2.1 µM
IC50 (CCRF-CEM): 6.8 µM

COc1cc(C(=O)c2[nH]c3cccc(C)c3c2N)cc(OC)c1OC
IC50 (L1210): > 10 µM
IC50 (FM3A): > 10 µM
IC50 [1]: > 10 µM
IC50 (CCRF-CEM): > 10 µM

COc1cc(C(=O)c2[nH]c3c(C)cccc3c2N)cc(OC)c1OC
IC50 (L1210): > 10 µM
IC50 (FM3A): > 10 µM
IC50 [1]: > 10 µM
IC50 (CCRF-CEM): > 10 µM

COc1cc(C(=O)c2c(N)c3ccc(C)cc3n2C)cc(OC)c1OC
IC50 (L1210): 1.9 µM
IC50 (FM3A): 1.5 µM
IC50 [1]: 0.11 µM
IC50 (CCRF-CEM): 0.4 µM
IC50 [2]: 6.4 µM

COc1ccc2c(C(=O)c3cc(OC)c(OC)c(OC)c3)c[nH]c2c1
IC50 (L1210): 0.0035 µM
IC50 (FM3A): 0.0037 µM
IC50 [1]: 0.0034 µM
IC50 (CCRF-CEM): 0.0036 µM
IC50 [2]: 2.9 µM
inhibition (Bos taurus): 84%

COc1cc(C(=O)c2c(N)c3ccc(Cl)cc3n2C)cc(OC)c1OC
IC50 (L1210): 1.1 µM
IC50 (FM3A): 0.97 µM
IC50 [1]: 0.48 µM
IC50 (CCRF-CEM): 1 µM
IC50 [2]: 7.1 µM

COc1cc(C(=O)c2c(N)c3cc(C)ccc3n2C)cc(OC)c1OC
IC50 (L1210): 1.9 µM
IC50 (FM3A): 1.6 µM
IC50 [1]: 1.7 µM
IC50 (CCRF-CEM): 1.7 µM
IC50 [2]: 10 µM

COc1cc(C(=O)c2[nH]c3ccc(Cl)cc3c2N)cc(OC)c1OC
IC50 (L1210): > 10 µM
IC50 (FM3A): > 10 µM
IC50 [1]: > 10 µM
IC50 (CCRF-CEM): > 10 µM

COc1cc(C(=O)c2c(N)c3c(C)cccc3n2C)cc(OC)c1OC
IC50 (L1210): > 10 µM
IC50 (FM3A): > 10 µM
IC50 [1]: > 10 µM
IC50 (CCRF-CEM): > 10 µM

COc1cc(C(=O)c2[nH]c3cccc(OC)c3c2N)cc(OC)c1OC
IC50 (L1210): > 10 µM
IC50 (FM3A): > 10 µM
IC50 [1]: > 10 µM
IC50 (CCRF-CEM): > 10 µM

— ChEMBL document CHEMBL1142357, “Synthesis and biological evaluation of 1-methyl-2-(3',4',5'-trimethoxybenzoyl)-3-aminoindoles as a new class of antimitotic agents and tubulin inhibitors” (J Med Chem, 2008)
